For assay [1], the target named is T1, D(1A) dopamine receptor (Homo sapiens, UniProt P21728). The assay is classed as functional, cell-based.
Assay [2] concerns the target T1, D(1A) dopamine receptor.
Assay [3] deals with 5-hydroxytryptamine receptor 2B (Homo sapiens, UniProt P41595).
Assay [4] addresses T2, Muscarinic acetylcholine receptor M1 (Homo sapiens, UniProt P11229).
T2 sequence (P11229 whole entry): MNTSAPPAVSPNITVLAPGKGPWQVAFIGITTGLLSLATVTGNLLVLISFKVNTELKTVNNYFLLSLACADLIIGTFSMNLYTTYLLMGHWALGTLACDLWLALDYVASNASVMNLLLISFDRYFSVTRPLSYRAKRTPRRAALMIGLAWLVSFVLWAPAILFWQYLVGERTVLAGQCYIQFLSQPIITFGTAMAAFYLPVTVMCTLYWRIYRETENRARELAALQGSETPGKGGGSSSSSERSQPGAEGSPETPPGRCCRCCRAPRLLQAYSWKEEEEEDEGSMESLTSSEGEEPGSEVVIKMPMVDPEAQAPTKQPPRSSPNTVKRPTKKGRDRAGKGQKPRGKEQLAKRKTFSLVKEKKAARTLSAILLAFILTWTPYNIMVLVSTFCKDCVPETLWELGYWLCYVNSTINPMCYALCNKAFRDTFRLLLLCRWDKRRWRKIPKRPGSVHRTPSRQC
The assay is classed as functional, cell-based.

Assay [5] addresses Beta-1 adrenergic receptor (Homo sapiens, UniProt P08588). The format is functional, cell-based.
Assay [6] concerns the target Hydroxycarboxylic acid receptor 2 (Homo sapiens, UniProt Q8TDS4).
Assay [7] concerns the target Cannabinoid receptor 1 (Homo sapiens, UniProt P21554). The format is functional.
Assay [8] has as its target T3, Muscarinic acetylcholine receptor M5 (Homo sapiens, UniProt P08912).
T3 sequence (P08912 whole entry): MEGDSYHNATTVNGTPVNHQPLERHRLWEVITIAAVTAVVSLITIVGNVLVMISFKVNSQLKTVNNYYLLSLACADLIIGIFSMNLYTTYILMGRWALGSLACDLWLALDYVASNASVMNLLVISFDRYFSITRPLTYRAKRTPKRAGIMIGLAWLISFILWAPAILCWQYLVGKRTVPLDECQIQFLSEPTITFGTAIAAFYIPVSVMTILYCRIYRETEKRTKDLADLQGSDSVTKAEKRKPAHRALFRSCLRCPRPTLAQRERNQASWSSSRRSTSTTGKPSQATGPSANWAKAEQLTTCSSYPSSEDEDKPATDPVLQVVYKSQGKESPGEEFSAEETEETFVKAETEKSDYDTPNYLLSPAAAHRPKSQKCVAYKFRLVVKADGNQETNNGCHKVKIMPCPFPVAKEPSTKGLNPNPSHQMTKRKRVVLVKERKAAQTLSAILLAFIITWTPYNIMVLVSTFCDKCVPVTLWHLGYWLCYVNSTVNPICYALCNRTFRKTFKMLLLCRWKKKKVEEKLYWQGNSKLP

The target in assay [9] is D(1B) dopamine receptor (Homo sapiens, UniProt P21918).
Chain of D(1B) dopamine receptor (P21918 whole entry): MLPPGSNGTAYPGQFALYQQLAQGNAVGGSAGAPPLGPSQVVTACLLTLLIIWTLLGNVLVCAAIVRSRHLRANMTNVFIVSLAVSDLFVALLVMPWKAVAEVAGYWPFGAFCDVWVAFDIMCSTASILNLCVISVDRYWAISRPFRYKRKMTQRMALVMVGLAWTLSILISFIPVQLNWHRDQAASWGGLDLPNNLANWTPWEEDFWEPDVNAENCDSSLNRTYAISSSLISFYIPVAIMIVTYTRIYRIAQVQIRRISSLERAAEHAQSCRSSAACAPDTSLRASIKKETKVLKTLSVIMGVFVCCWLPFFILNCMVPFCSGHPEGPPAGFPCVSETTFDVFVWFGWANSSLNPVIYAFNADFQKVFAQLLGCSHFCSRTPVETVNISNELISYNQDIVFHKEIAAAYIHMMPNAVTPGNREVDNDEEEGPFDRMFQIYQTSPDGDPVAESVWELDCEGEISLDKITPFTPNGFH
Assay [10] addresses Rod cGMP-specific 3',5'-cyclic phosphodiesterase subunit alpha (Homo sapiens, UniProt P16499). The format is functional.
The target of assay [11] is T4, Substance-K receptor (Homo sapiens, UniProt P21452).
T4 sequence (P21452 whole entry): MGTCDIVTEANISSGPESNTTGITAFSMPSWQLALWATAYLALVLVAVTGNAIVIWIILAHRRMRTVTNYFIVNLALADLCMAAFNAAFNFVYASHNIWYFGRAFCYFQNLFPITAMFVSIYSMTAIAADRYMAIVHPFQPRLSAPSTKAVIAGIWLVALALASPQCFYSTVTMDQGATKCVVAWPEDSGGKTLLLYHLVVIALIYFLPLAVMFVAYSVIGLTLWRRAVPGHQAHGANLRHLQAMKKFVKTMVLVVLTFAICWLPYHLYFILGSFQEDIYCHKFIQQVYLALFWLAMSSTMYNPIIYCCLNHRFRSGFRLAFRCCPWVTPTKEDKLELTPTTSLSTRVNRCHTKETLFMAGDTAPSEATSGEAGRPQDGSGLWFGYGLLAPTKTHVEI

Assay [12] concerns the target T5, Thromboxane A2 receptor (Homo sapiens, UniProt P21731).
T5 sequence (P21731 whole entry): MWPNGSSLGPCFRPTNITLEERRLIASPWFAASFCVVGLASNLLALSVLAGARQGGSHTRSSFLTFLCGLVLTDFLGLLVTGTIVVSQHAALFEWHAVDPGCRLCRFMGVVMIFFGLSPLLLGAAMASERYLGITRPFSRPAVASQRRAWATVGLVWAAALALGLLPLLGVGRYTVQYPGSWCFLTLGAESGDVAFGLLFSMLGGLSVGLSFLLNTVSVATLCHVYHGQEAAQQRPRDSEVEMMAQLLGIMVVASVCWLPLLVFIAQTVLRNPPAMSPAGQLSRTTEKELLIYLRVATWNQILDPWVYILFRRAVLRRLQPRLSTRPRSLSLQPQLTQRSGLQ
The assay is classed as functional, cell-based.
Note: assay procedure not described here.

T1 sequence (P21728 whole entry): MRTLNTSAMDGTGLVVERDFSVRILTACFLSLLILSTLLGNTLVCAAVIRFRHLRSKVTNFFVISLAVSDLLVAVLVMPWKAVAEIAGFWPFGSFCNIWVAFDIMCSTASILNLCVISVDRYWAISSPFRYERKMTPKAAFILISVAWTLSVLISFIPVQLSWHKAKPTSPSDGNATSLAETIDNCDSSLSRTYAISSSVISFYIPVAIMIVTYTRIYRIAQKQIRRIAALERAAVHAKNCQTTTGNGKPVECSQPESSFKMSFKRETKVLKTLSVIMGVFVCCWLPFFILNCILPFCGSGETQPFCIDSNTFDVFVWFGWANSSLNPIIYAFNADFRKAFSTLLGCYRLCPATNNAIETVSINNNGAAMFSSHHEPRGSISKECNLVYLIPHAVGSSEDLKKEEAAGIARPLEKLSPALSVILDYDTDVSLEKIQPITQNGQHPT
Chain of Beta-1 adrenergic receptor (P08588 whole entry): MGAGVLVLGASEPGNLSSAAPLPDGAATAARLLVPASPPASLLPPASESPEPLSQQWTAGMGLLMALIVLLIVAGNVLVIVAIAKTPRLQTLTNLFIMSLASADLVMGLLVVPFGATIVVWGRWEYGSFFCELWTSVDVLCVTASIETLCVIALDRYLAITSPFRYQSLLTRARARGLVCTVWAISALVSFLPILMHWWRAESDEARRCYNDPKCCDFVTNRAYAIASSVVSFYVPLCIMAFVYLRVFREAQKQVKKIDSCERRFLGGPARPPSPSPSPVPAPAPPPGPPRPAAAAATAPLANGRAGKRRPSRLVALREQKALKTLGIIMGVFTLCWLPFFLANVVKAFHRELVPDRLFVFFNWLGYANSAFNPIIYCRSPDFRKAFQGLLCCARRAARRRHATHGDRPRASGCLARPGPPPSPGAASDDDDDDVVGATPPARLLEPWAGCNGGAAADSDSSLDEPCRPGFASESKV
Chain of Hydroxycarboxylic acid receptor 2 (Q8TDS4 whole entry): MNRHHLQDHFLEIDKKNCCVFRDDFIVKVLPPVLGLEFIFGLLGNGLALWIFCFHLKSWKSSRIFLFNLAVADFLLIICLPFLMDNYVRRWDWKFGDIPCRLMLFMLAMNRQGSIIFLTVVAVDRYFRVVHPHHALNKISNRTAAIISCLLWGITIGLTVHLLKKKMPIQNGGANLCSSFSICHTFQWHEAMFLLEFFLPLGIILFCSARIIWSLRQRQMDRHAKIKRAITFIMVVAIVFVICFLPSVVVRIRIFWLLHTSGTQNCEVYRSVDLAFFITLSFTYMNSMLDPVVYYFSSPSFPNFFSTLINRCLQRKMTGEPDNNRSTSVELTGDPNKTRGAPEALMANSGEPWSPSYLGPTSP
Chain of Cannabinoid receptor 1 (P21554 whole entry): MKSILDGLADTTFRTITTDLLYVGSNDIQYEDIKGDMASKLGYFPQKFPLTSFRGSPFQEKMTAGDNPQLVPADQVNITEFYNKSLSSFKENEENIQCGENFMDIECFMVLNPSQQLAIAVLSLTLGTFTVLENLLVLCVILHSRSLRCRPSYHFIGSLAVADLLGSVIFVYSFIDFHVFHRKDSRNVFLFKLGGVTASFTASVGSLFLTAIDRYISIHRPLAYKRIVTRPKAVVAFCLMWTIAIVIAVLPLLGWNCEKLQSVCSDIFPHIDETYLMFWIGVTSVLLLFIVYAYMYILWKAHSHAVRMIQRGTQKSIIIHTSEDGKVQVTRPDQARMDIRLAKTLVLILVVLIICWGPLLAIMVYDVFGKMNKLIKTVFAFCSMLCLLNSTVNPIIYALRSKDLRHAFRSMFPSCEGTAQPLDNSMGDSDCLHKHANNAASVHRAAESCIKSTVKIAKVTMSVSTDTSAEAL
Chain of Rod cGMP-specific 3',5'-cyclic phosphodiesterase subunit alpha (P16499 whole entry): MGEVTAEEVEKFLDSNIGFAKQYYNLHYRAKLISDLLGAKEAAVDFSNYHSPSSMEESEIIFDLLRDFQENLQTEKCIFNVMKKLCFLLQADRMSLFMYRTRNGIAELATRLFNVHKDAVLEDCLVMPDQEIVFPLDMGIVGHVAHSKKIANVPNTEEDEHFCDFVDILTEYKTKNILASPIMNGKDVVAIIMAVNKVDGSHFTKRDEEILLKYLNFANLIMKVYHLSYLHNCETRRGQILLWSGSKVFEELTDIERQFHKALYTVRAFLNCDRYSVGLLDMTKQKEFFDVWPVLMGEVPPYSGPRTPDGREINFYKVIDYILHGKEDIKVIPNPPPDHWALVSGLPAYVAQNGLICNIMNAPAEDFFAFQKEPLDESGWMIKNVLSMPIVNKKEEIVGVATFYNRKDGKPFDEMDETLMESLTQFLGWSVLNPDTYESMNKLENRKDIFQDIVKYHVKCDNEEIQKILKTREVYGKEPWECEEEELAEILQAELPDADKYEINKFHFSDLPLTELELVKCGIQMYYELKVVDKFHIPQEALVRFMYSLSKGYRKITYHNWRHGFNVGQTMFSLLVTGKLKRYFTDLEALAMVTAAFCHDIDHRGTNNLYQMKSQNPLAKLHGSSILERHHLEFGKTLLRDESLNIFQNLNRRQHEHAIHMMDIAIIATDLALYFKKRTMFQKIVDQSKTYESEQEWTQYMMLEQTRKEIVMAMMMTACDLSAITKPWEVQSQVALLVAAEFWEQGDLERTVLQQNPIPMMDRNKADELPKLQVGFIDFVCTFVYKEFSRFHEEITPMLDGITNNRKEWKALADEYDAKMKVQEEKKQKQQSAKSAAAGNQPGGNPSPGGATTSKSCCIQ
Chain of 5-hydroxytryptamine receptor 2B (P41595 whole entry): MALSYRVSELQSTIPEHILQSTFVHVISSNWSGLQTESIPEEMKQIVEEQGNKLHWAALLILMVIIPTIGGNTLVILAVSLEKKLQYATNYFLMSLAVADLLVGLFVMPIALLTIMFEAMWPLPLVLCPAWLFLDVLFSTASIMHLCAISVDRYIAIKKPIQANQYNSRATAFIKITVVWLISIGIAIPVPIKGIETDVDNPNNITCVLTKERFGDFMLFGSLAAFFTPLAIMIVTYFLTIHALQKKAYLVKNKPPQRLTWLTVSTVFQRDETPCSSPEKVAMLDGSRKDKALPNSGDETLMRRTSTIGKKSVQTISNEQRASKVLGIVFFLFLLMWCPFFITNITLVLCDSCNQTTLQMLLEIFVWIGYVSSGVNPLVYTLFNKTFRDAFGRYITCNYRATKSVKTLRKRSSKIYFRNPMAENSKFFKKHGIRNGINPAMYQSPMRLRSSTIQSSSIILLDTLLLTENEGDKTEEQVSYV

`CC(=O)c1ccc2c(c1)N(CCCN(C)C)c1ccccc1S2` [ACEPROMAZINE]: the concentration at half-maximal activity (AC50) (in general, the concentration giving half of the maximal activity seen) in [1] came out at 1.4 µM; in assay [2], 0.066 µM.

Take `C=CCN1C[C@H](C(=O)N(CCCN(C)C)C(=O)NCC)C[C@@H]2c3cccc4[nH]cc(c34)C[C@H]21` [CABERGOLINE]: the AC50 in [1] is greater than 30 µM; in [3], 0.0148 µM.

On to `NC1CCN(c2c(F)cc3c(=O)c(C(=O)O)cn(C4CC4)c3c2Cl)C1` (stereo unspecified) [CLINAFLOXACIN], for which the half-maximal activity concentration (AC50) in assay [4] was greater than 300 µM.

In assay [5], `CN(C)CC/C=C1\c2ccccc2CSc2ccccc21` [DOTHIEPIN] returned an AC50 greater than 30 µM.

As to `COc1ccc(C(=O)Nc2ccccc2CCC2CCCCN2C)cc1` (stereo unspecified) [ENCAINIDE], the AC50 in [6] is greater than 10 µM.

`O=[N+]([O-])O[C@@H]1CO[C@H]2[C@@H]1OC[C@@H]2O` [ISOSORBIDE MONONITRATE]: the concentration at half-maximal activity (AC50) in assay [6] was greater than 10 µM.

`COc1ccccc1N1CCN(CC(O)COc2cccc3ccccc23)CC1` (stereo unspecified) [NAFTOPIDIL] yielded an AC50 in assay [5] greater than 30 µM.

In turn, `O=[N+]([O-])c1cn2c(n1)OC[C@@H](OCc1ccc(OC(F)(F)F)cc1)C2` [PRETOMANID] had an AC50 in [7] greater than 10 µM.

Turning to `CCOc1ccccc1OCC1CNCCO1` (stereo unspecified) [VILOXAZINE], the concentration at half-maximal activity (AC50) was greater than 10 µM in assay [8]; greater than 10 µM in [7]; greater than 10 µM in [9]; greater than 10 µM in assay [10]; greater than 10 µM in assay [11]; greater than 30 µM in [12].

The values above are taken from ChEMBL document CHEMBL5291721, “A preclinical secondary pharmacology resource illuminates target-adverse drug reaction associations of marketed drugs” (Nat Commun, 2023).
